The results in this text go back to US4011390A, “Semi-synthetic aminocyclitol aminoglycoside antibiotics and methods for the preparation thereof” (Schering-Plough Corporation, priority 1974, dated 1977).

Holding throughout (assay type): cell-based
One assay has as its system Streptococcus pyogenes. Put plainly: Disc test, Bauer-Kirby technique with 10 Mcg. discs. Conditions: Streptococcus pyogenes. The source says: (§1) Disc Test Results (Replicate Tests) With The Mutamicins, Sisomicin and
(§2) Bauer-Kirby Technique^1 With 10 Mcg. Discs
(§3) ^1 Bauer, Kirby, Sherris and Turck, American Journal of Clinical

The subject of the next assay is Providence 164. The description is as above. The conditions noted are these: strain 164.
Excerpt: as §1, §2, §3

In another assay the test system is Proteus airabilis. Described as above. The conditions noted are these: strain Harding.
Excerpt: as §1, §2, §3

The subject of another assay is Pseudomonas aeruginosa. Described as above. The conditions noted are these: Pseudomonas aeruginosa.
Excerpt: as §1, §2, §3

Another assay deals with Salmonella typhimurium. The description is as above. The conditions noted are these: Salmonella enterica, Group B.
Excerpt: as §1, §2, §3

Assay [1] concerns Klebsiella pneumoniae. The description is as above. The conditions noted are these: Klebsiella pneumoniae.
Excerpt: as §1, §2, §3

The subject of a further assay is Bacillus subtilis. The assay is described as above. Conditions: Bacillus subtilis, ATCC6633, strain ATCC 6633.
Excerpt: as §1, §2, §3

The next assay concerns Proteus rettgeri. The description is as above. The conditions noted are these: Providencia rettgeri.
Excerpt: as §1, §2, §3

Another assay deals with Escherichia coli. The description is as above. The conditions noted are these: Escherichia coli, read-out: Zone Size.
Excerpt: as §1, §2, §3

In the next assay the test system is Staphylococcus aureus. The description is as above. Conditions: Staphylococcus aureus.
Excerpt: as §1, §2, §3

Assay [2] has as its system Klebsiella pneumoniae. Put plainly: Activity against resistant strains. The conditions noted are these: gentamicin, tobramycin and kanamycin resistant adenylylating strains. The text has this:
(§4) In many instances, bacterial resistance is related to the organism's ability to inactivate the antibacterial agent via enzymatic (biochemical) means. Some species inactivate aminoglycosides antibiotics by acetylating the antibacterial agent, others by phosphorylation and still others by adenylylating. Some strains have several different inactivating capabilities. Further, the inactivation reactions occur at a specific site or sites on the antibacterial agent. We have shown by the compounds of this invention that alteration of sites on the antibiotic molecule not directly involved in inactivation processes can nevertheless frustrate these inactivation processes. […] The tables illustrate that the mutamicins include compounds which are active against strains having different mechanisms of inactivation of gentamicin, sisomicin, kanamycin, neomycin and torbramycin. For example, some mutamicins are effective against strains of E. coli which contain adenylylating R factors such as E. coli W677/R55 and LA290/R55. These E. coli strains are resistant to gentamicin, sisomicin and torbramycin. Some are also effective against gentamicin, tobramycin and kanamycin resistant adenylylating strains of Klebsiella pneumoniae and also kanamycin, neomycin phosphorylating strains of E. coli and Klebsiella pneumoniae. Further, some mutamicins are effective against gentamicin and sisomicin resistant strains of Pseudomonas aeruginosa and gentamicin, sisomicin, tobramycin resistant Providence which is sensitive to kanamycin. Thus, the mutamicins afford a means for combatting strains of bacteria which have already developed a variety of mechanisms for resisting the action of many of the antibiotics known in the art or currently in commercial use.

The subject of a further assay is Providence. Put plainly: Activity against resistant strains. Conditions: gentamicin, sisomicin, tobramycin resistant Providence.
Excerpt: as §4

Another assay concerns E. coli. The assay is described as follows: Activity against resistant strains. The conditions noted are these: E. coli W677/R55 and LA290/R55.
Excerpt: as §4

[3] abbreviates: ATCC10536, strain ATCC 10536, 10 Mcg. discs.
[4] abbreviates: strain St. Michael 1574-1, 10 Mcg. discs.
[5] abbreviates: strain Swidinsky 4195, 10 Mcg. discs.

Where two headings read alike, the source gives them in different places.

As to `CN[C@@H]1[C@@H](O)[C@@H](O[C@@H]2C[C@H](O[C@H]3OC(CN)=CC[C@H]3N)[C@@H](N)C[C@H]2N)OC[C@]1(C)O` [Mutamicin 2], the zone of inhibition at 10 µg/disc was 17 mm in the assay with Streptococcus pyogenes (strain B-Cruz); 15 mm in the assay on Streptococcus pyogenes (strain C); 25 mm with Providence 164; 26 mm with Proteus airabilis; 22 mm in the assay with Pseudomonas aeruginosa (strain Capetown 18); 26 mm in the assay with Pseudomonas aeruginosa (strain D-2). For the same compound, the zone of inhibition at 10 µg/disc in the assay on Pseudomonas aeruginosa (strain St. Michael 413) is 27 mm; with Pseudomonas aeruginosa (strain St. Michael 762) it was 26 mm; in the assay with Pseudomonas aeruginosa (strain St. Michael 836), 28 mm; in the assay on Pseudomonas aeruginosa (strain St. Michael 1262) it was 27 mm; with Pseudomonas aeruginosa (strain St. Michael 1395) it was 28 mm; in the assay on Pseudomonas aeruginosa (strain Stone 20) it was 33 mm. Besides, the zone of inhibition at 10 µg/disc was 27 mm with Pseudomonas aeruginosa (strain Stone 39); 25 mm in the assay on Pseudomonas aeruginosa (strain Stone 130); 23 mm in the assay on Pseudomonas aeruginosa (strain Stone 138); 27 mm in the assay with Salmonella typhimurium; 23 mm in the assay with Klebsiella pneumoniae [1] (strain Ad 17); 25 mm in the assay with Klebsiella pneumoniae [1] (strain Ad 18). The zone of inhibition at 10 µg/disc in the assay on Klebsiella pneumoniae [1] (strain Georgetown 3020) turned out to be 21 mm; with Klebsiella pneumoniae [1] (strain Georgetown 3694) it was 22 mm; with Bacillus subtilis, 33 mm; in the assay on Proteus rettgeri it was 24 mm; with Escherichia coli (setting [3]), 28 mm; in the assay on Escherichia coli (strain 589, 10 Mcg. discs), 24 mm. Also, the zone of inhibition at 10 µg/disc in the assay with Escherichia coli (strain JR66, 10 Mcg. discs) amounted to 26 mm; in the assay on Escherichia coli (strain JR88, 10 Mcg. discs) it was 22 mm; with Escherichia coli (strain JR90, 10 Mcg. discs) it was 25 mm; with Escherichia coli (strain LA290/R55, 10 Mcg. discs), 21 mm; with Escherichia coli (setting [4]) it was 27 mm; with Escherichia coli (setting [5]) it was 25 mm. Moreover, the zone of inhibition at 10 µg/disc in the assay on Escherichia coli (strain W677/R55, 10 Mcg. discs) stood at 21 mm; with Staphylococcus aureus (ATCC6538P, strain ATCC 6538P), 27 mm; in the assay with Staphylococcus aureus (strain 59N), 29 mm; in the assay with Staphylococcus aureus (strain 1118), 14 mm; with Staphylococcus aureus (strain Grey) it was 16 mm; with Staphylococcus aureus (strain Wood), 29 mm. Further, in the assay with Staphylococcus aureus (strain Ziegler), the zone of inhibition at 10 µg/disc worked out at 28 mm.
With `CN[C@@H]1[C@@H](O)[C@@H](O[C@H]2[C@H](N)[C@H](O)[C@H](N)[C@@H](O[C@H]3OC(CN)=CC[C@H]3N)[C@@H]2O)OC[C@]1(C)O` [Mutamicin 4], the zone of inhibition at 10 µg/disc is 12 mm in the assay with Streptococcus pyogenes (strain 27); 12 mm in the assay with Streptococcus pyogenes (strain C); 0 mm with Providence 164; 21 mm in the assay with Proteus airabilis; 16 mm with Pseudomonas aeruginosa (strain Capetown 18); 17 mm with Pseudomonas aeruginosa (strain D-2). Moreover, the zone of inhibition at 10 µg/disc in the assay with Pseudomonas aeruginosa (strain St. Michael 413) stood at 19 mm; in the assay on Pseudomonas aeruginosa (strain St. Michael 836), 19 mm; in the assay with Pseudomonas aeruginosa (strain St. Michael 1262), 19 mm; with Pseudomonas aeruginosa (strain St. Michael 1395), 19 mm; with Pseudomonas aeruginosa (strain Stone 20) it was 28 mm; in the assay with Pseudomonas aeruginosa (strain Stone 39), 20 mm. The zone of inhibition at 10 µg/disc in the assay on Pseudomonas aeruginosa (strain Stone 130) came to 14 mm; in the assay on Pseudomonas aeruginosa (strain Stone 138), 11 mm; in the assay with Salmonella typhimurium, 25 mm; in the assay with Klebsiella pneumoniae [1] (strain Ad 17) it was 25 mm; with Klebsiella pneumoniae [1] (strain Ad 18), 24 mm; in the assay on Klebsiella pneumoniae [1] (strain Ad 22) it was 26 mm. Also, the zone of inhibition at 10 µg/disc in the assay with Klebsiella pneumoniae [1] (strain Georgetown 3020) was determined as 19 mm; in the assay with Klebsiella pneumoniae [1] (strain Georgetown 3694), 19 mm; with Bacillus subtilis, 29 mm; with Proteus rettgeri, 14 mm; with Escherichia coli (setting [3]), 27 mm; in the assay with Escherichia coli (strain 589, 10 Mcg. discs), 26 mm. The zone of inhibition at 10 µg/disc turned out to be 24 mm with Escherichia coli (strain Baker 2, 10 Mcg. discs); 18 mm with Escherichia coli (strain JR66, 10 Mcg. discs); 16 mm with Escherichia coli (strain JR88, 10 Mcg. discs); 22 mm with Escherichia coli (strain JR90, 10 Mcg. discs); 25 mm with Escherichia coli (setting [4]); 17 mm with Escherichia coli (setting [5]). For the same compound, the zone of inhibition at 10 µg/disc turned out to be 13 mm in the assay on Escherichia coli (strain W677/R55, 10 Mcg. discs); 24 mm with Staphylococcus aureus (ATCC6538P, strain ATCC 6538P); 26 mm in the assay on Staphylococcus aureus (strain 59N); 14 mm in the assay on Staphylococcus aureus (strain 1118); 13 mm in the assay with Staphylococcus aureus (strain Grey); 26 mm with Staphylococcus aureus (strain Wood). In the assay on Staphylococcus aureus (strain Ziegler), this compound displayed a zone of inhibition at 10 µg/disc of 24 mm.
Take `CN[C@@H]1[C@@H](O)[C@@H](O[C@@H]2[C@@H](N)[C@H](O[C@H]3OC(CN)=CC[C@H]3N)[C@@H](N)C[C@H]2N)OC[C@]1(C)O` [Mutamicin 5]: the zone of inhibition at 10 µg/disc was found to be 9 mm in the assay on Providence 164; 19 mm with Proteus airabilis; 0 mm in the assay with Pseudomonas aeruginosa (strain Capetown 18); 0 mm in the assay with Pseudomonas aeruginosa (strain D-2); 11 mm in the assay with Pseudomonas aeruginosa (strain St. Michael 413); 10 mm in the assay with Pseudomonas aeruginosa (strain St. Michael 836). For the same compound, the zone of inhibition at 10 µg/disc with Pseudomonas aeruginosa (strain St. Michael 1262) stood at 10 mm; with Pseudomonas aeruginosa (strain St. Michael 1395) it was 0 mm; in the assay on Pseudomonas aeruginosa (strain Stone 20), 16 mm; in the assay with Pseudomonas aeruginosa (strain Stone 39) it was 12 mm; in the assay on Pseudomonas aeruginosa (strain Stone 130), 0 mm; in the assay with Pseudomonas aeruginosa (strain Stone 138), 0 mm. In addition, the zone of inhibition at 10 µg/disc was 22 mm in the assay with Salmonella typhimurium; 20 mm in the assay on Klebsiella pneumoniae [1] (strain Ad 17); 21 mm with Klebsiella pneumoniae [1] (strain Ad 18); 0 mm with Klebsiella pneumoniae [1] (strain Georgetown 3020); 0 mm with Klebsiella pneumoniae [1] (strain Georgetown 3694); 28 mm in the assay with Bacillus subtilis. Further, the zone of inhibition at 10 µg/disc in the assay on Proteus rettgeri came out at 13 mm; with Escherichia coli (setting [3]) it was 24 mm; with Escherichia coli, 18 mm; in the assay with Escherichia coli (strain JR66, 10 Mcg. discs) it was 0 mm; in the assay with Escherichia coli (strain JR88, 10 Mcg. discs), 0 mm; with Escherichia coli (strain JR90, 10 Mcg. discs), 0 mm. The zone of inhibition at 10 µg/disc with Escherichia coli (setting [4]) is 22 mm; with Escherichia coli (setting [5]) it was 0 mm; in the assay with Escherichia coli (strain W677/R55, 10 Mcg. discs) it was 10 mm; in the assay with Staphylococcus aureus (ATCC6538P, strain ATCC 6538P), 21 mm; in the assay with Staphylococcus aureus (strain 59N), 23 mm; with Staphylococcus aureus (strain Wood), 25 mm. The zone of inhibition at 10 µg/disc in the assay with Staphylococcus aureus (strain Ziegler) came to 23 mm.
For the compound `NC[C@H]1O[C@H](O[C@H]2[C@H](O)[C@@H](O[C@H]3O[C@H](CO)[C@@H](O)[C@H](N)[C@H]3O)[C@H](N)C[C@@H]2N)[C@H](O)[C@@H](O)[C@@H]1O` [kanamycin], in the assay on Klebsiella pneumoniae [2], the “activity against resistant adenylylating strains” value is reported as “resistant”. Further, the “activity against resistant Providence” value in the assay with Providence is “sensitive”.
As for `NC[C@H]1O[C@H](O[C@H]2[C@H](O)[C@@H](O[C@H]3O[C@H](CO)[C@@H](O)[C@H](N)[C@H]3O)[C@H](N)C[C@@H]2N)[C@H](N)C[C@@H]1O` [tobramycin], the “activity against resistant adenylylating strains” value in the assay with Klebsiella pneumoniae [2] is “resistant”. In addition, the “activity against resistant Providence” value in the assay with Providence was “resistant”. For the same compound, the “activity against strains containing adenylylating R factors” value in the assay on E. coli is “resistant”.
